Test results published in ChEMBL document CHEMBL1157539, “Thousands of chemical starting points for antimalarial lead identification” (Nature, 2010).

tested on: Plasmodium falciparum; assay: GSK_TCMDC: Inhibition of Plasmodium falciparum 3D7 in whole erythrocytes, using parasite LDH activity as an index of growth.; format: functional, organism-based; settings: Plasmodium falciparum, 3D7

In order of rising XC50:
1. O=c1c(NCCCN(Cc2ccc(F)cc2)c2ccccn2)c(NCc2ccncc2)c1=O  0.153 µM
2. COc1cc2c(cc1OC)C(C(=O)Nc1ccc(C(F)(F)F)cc1)C(c1cccs1)N(C)C2=O (stereo not drawn)  0.158 µM
3. O=C(Nc1ccc(-c2ccc(-c3nc4ccccc4[nH]3)s2)cc1)Nc1ccc(Cl)c(Cl)c1  0.165 µM
4. O=C(Cn1c(=O)cnc2ccccc21)Nc1cccc(C(=O)Nc2cccc(C(F)(F)F)c2)c1  0.277 µM
5. CC1CN(c2cnn(Cc3cccc(NC(=O)Nc4ccc(-c5ccccc5)cc4)c3)c(=O)c2Cl)CC(C)N1 (stereo not drawn)  0.34 µM
6. c1ccc(-c2cc(NCc3cccc4ccccc34)c3[nH]ncc3n2)cc1  0.518 µM
7. COc1cc(O)c2c(=O)c(OC)c(-c3cccc(Cl)c3OCC(=O)O)oc2c1OC  0.586 µM
8. Fc1cccc(COc2ccc(Nc3ncnc4cc(/C=C/[C@@H]5CCCN5)sc34)cc2Cl)c1  0.592 µM
9. CC(C)(C)c1ccc(NC(=O)c2ccc(CN3CCCN(Cc4cccc(C#N)c4)CC3)cc2)cc1  0.641 µM
10. CC(=O)C1(c2ccccc2)CCN(CCC2(c3ccc(Cl)c(Cl)c3)CN(C(=O)CC(C)C)CCO2)CC1 (stereo not drawn)  0.644 µM
11. CC(=O)N(C)c1cccc(C(=O)Nc2ccc(-c3cccc(-c4nc5cccc(C)c5[nH]4)c3)cc2)c1  0.651 µM
12. COc1ccc(-c2ccc(NC(=O)c3cccc(Cl)c3)c(F)c2)cc1CN1CCCN(C)CC1  0.679 µM
13. Cc1cccc(CCCNC(=O)CN(c2cccc(C(F)(F)F)c2)S(=O)(=O)c2ccc(C(F)(F)F)cc2)c1  0.684 µM
14. COc1ccc(-c2cccc(NC(=O)c3cccc(C#N)c3)c2)cc1CNC(C)C  0.694 µM
15. CN(C)c1cc(NN=Cc2cc(Cl)ccc2O)nc(N(C)C)n1  0.703 µM
16. Oc1ccc(Cc2cc(Oc3c(I)cc(CCc4ncc[nH]4)cc3I)ccc2O)cc1  0.712 µM
17. O=C(Nc1ccc(S(=O)(=O)NCCCN2CCOCC2)cc1)c1cc(-c2ccccc2)[nH]n1  0.769 µM
18. Cc1cccc(N2CCN(Cc3cc(Cl)ccc3O)CC2)c1C  0.771 µM
19. Cc1[nH]c2ccc(O)cc2c1C1CCN(CCCCCNC(=O)/C=C/c2ccc(Cl)c(Cl)c2)CC1  0.771 µM
20. O=C(N[C@H]1CCN(Cc2ccc(OC3CCN(Cc4ccccc4)CC3)c(Br)c2)C1)c1ccc(Cl)c(Cl)c1  0.783 µM
21. CC(C)(C)c1ccc(CNC(=O)c2cc(CNC3CCNC3)ccc2O)cc1 (stereo not drawn)  0.805 µM
22. CC(C)(C)Nc1nc(Nc2cccc([N+](=O)[O-])c2)nc(-n2ccnc2)n1  0.811 µM
23. CC(C)CNC(=O)CN1C(=O)C(c2ccccc2)(c2ccccc2)N=C1N  0.815 µM
24. Fc1cc(Cl)ccc1Nc1ccnc2cc(-c3scnc3CNCCN3CCOCC3)ccc12  0.848 µM
25. O=C(N[C@@H](Cc1ccccc1)C(=O)NCCN1CCCCC1)c1ccc(O)c(-c2cccc(C(F)(F)F)c2)c1  0.85 µM
26. N#Cc1ccc(N2C[C@@H](OCc3ccccc3)C[C@H]2C(=O)NCCC(c2ccccc2)c2ccccc2)c2ccccc12  0.856 µM
27. COc1ccc(NC(=O)NCC2CCCN(CCCCCNC(=O)/C=C/c3ccc(Cl)c(Cl)c3)C2)c(OC)c1 (stereo not drawn)  0.859 µM
28. CCOc1cc(NC(=O)Nc2ccnc3ccccc23)cc(OC)c1  0.866 µM
29. CCc1c[nH]c2c(N3CCCCS3(=O)=O)cc(C(=O)N[C@@H](Cc3ccccc3)[C@H](O)CNCc3cccc(OC)c3)cc12  0.909 µM
30. CC(C)c1ccc(CN2CCC(CNC(=O)c3cc(-c4cccc(C(F)(F)F)c4)cs3)C2)cc1 (stereo not drawn)  0.914 µM
31. Cc1ccc(CC(C)NCC(O)c2cccc(C(F)(F)F)c2)cc1F (stereo not drawn)  0.916 µM
32. CC(C)Oc1cc2c(cc1NS(=O)(=O)c1ccc(-c3ccc(Cl)cc3)cc1F)CCN(C)CC2  0.919 µM
33. Cc1ccnc(NC(c2ccc(Cl)c([N+](=O)[O-])c2)c2ccc3cccnc3c2O)c1 (stereo not drawn)  0.927 µM
34. Cc1ccccc1CCNC(=O)c1cnc(N2CCN(c3ccncc3)CC2)c(Cl)c1  1.06 µM
35. O=C(NC1CC1)c1ccc(N2CCC(Oc3ccc(F)cc3)CC2)nc1  1.09 µM
36. CCCc1nc2c(N3CCCN(C(=O)NC4CCCCC4)CC3)cccc2n1Cc1ccccn1  1.16 µM
37. Cc1cccc(C)c1CNc1ccnc2ccccc12  1.2 µM
38. Cc1cc(OCCCN2CCC(NS(=O)(=O)c3ccc(C(F)(F)F)cc3)CC2)c2ccccc2n1  1.22 µM
